In article PMC9029538, “Dosing Colistimethate Every 8 h Results in Higher Plasma Concentrations of Active Colistin Than Every 12-Hourly Dosing without Increase in Nephrotoxicity: A Phase 1 Pharmacokinetics Trial in Healthy Adult Volunteers” (Antibiotics, 2022):
Like-named read-outs stand apart in the source and are kept apart here. Where a SMILES comes first, the peptide text is derived from it. Bridges are numbered along the chain shown (N, C = ends). [ ]: non-standard residue; d: D form. The star is where a group is joined. Heptanoyl(6-Me) = CC(C)CCCCC(=O)*; X1 = CC[C@H](C)CCCCC(=O)*; Dab = NCC[C@H](N)C(=O)O

Key:
[1] = Plasma pharmacokinetics after IV CMS (Period 1); conditions: for AUC(0-t) / AUC(0-inf) / clearance / Cmax / Vd / half-life / Tmax: human, in vivo, iv; for clearance: CL; for Vd: Vdss; for Tmax: median (min-max)
Method: (§1) During dosing Period 1, subjects in Cohorts 1, 2, and 3 received 2 to 3 doses of IV CMS (total exposure 5–10 mg/kg) based on the specific cohort regimen. During dosing Period 2, the same subjects then received 2 to 4 doses of 75 mg of CMS via aerosolized administration, and during dosing Period 3, subjects received a combination of IV and aerosolized CMS based on the specific cohort regimen. Each dosing period was followed by a washout period of at least 3 days (Table 1).
(§2) For all plasma PK collections, 3 mL samples of whole blood were drawn into collection tubes containing sodium heparin and placed immediately on ice at specified time intervals. […] The blood was centrifuged at 2500× g within 2 h of collection, and the plasma fraction was removed and frozen at −70 °C for shipment to the Analytical Pharmacology Laboratory at the University of Toledo.
(§3) The PK analysis was conducted using Phoenix™ WinNonlin® Version 6.2 (Pharsight, a Certara Company).
(§4) Concentration versus time profiles were investigated for each of the four colistin analytes. These profiles were augmented by the inclusion of estimated concentrations at additional time points, including dosing Period 1—immediately prior to the final IV dose; dosing Period 3—immediately prior to the final IV dose; and after the final IV dose. The following PK parameters were estimated for each: maximum observed concentration (Cmax), area under the plasma concentration versus time curve, AUC (e.g., AUC 0–inf), AUC 0–t) versus time curve, time to maximum observed concentration (Tmax), elimination half-life (t1/2), slope of the post-distributive terminal portion of plasma concentration versus time curve (Kel), total body clearance/bioavailability (CL/F), and the apparent steady-state volume of distribution/bioavailability ([…]). The concentrations of intravenously administered CMS, aerosolized drug, and both delivery methods used simultaneously were compared. In addition, the presence or absence of a proportionality dose-dependent effect was determined.

clinical = assay: clinical
Method: as §1, §2, §3, §4

[2] = Period 3, Cohort 1: IV 2.5 mg/kg q12h x 2 doses + aerosol 75 mg colistin base activity q12h x 2 doses; plasma after final dose; median (min-max)
Method: as §1, §2, §3
Concentration versus time profiles were investigated for each of the four colistin analytes. These profiles were augmented by the inclusion of estimated concentrations at additional time points, including dosing Period 1—immediately prior to the final IV dose; dosing Period 3—immediately prior to the final IV dose; and after the final IV dose. […] In addition, the presence or absence of a proportionality dose-dependent effect was determined.

[3] = Nephrotoxicity (serum creatinine); assay type: in vivo, healthy adult volunteers; set-up: serum creatinine increase (absolute): unit not given here; conditions: for serum creatinine increase (absolute) / serum creatinine increase (percent): 24 h post first dose
Method: Serum samples for kidney biomarkers were obtained for serum cystatin C, NGAL, and serum β microglobulin levels. Urine samples were obtained for urine protein, creatinine, and microalbumin excretion (see Supplementary Tables S1–S10 and Data S1–S6).
(§5) Safety assessments for TEAEs were conducted, including physical examinations (including neurological evaluations), […], vital signs, clinical laboratory tests, selected biomarkers for acute kidney injury (see section on kidney biomarkers), spirometry, and ECG measurements (see Supplementary Data S5 and S6 for clinical laboratory evaluations and schedule of events). If symptoms of ataxia were present, SARA (Scale for the Assessment and Rating of Ataxia, according to Schmitz-Hübsch et al.) assessment forms were completed to assess their severity.

[4] = Neurotoxicity (paresthesias, ataxia, SARA scores); assay type: in vivo, healthy adult volunteers; conditions: Cohort 1, 2.5 mg/kg q12h × 2 doses; Periods 1 and 3 combined; seven of eighteen
Method: as §5

[5] = system: A. baumannii or P. aeruginosa; conditions: retrospective study, cited from earlier work
Description: Whether the aerosolized administration of CMS translates into greater drug efficacy against MDROs in the management of HAP/VAP caused by MDROs, however, still remains a matter of controversy, as is the issue of the efficacy of colistin combination therapy. A retrospective study of pneumonia patients who received aerosolized colistin therapy for a median of 14 days reported the microbiological eradication of the causative MDRO (A. baumannii or P. aeruginosa) in 18 out of 21 cases. This high rate of eradication corroborates another retrospective study in which 37 out of 40 patients who re ...

[6] = 2.5 mg/kg, Period 1, Cohort 1: IV 2.5 mg/kg colistin base activity q12h x 2 doses, plasma after final dose, mean (SD), SD
[7] = 2.5 mg/kg, Period 1, Cohort 2: IV 2.5 mg/kg colistin base activity q8h x 3 doses, plasma after final dose, mean (SD), SD
[8] = 2.5 mg/kg, t1/2, Period 1, Cohort 1: IV 2.5 mg/kg colistin base activity q12h x 2 doses, plasma after final dose, mean (SD), SD
[9] = 2.5 mg/kg, t1/2, Period 1, Cohort 2: IV 2.5 mg/kg colistin base activity q8h x 3 doses, plasma after final dose, mean (SD), SD
[10] = 2.5 mg/kg, Period 1, Cohort 1: IV 2.5 mg/kg colistin base activity q12h x 2 doses, plasma after final dose
[11] = 2.5 mg/kg, Period 1, Cohort 2: IV 2.5 mg/kg colistin base activity q8h x 3 doses, plasma after final dose
[12] = 3.3 mg/kg, Period 1, Cohort 3: IV 3.3 mg/kg colistin base activity q8h x 3 doses, plasma after final dose, mean (SD), SD
[13] = 3.3 mg/kg, t1/2, Period 1, Cohort 3: IV 3.3 mg/kg colistin base activity q8h x 3 doses, plasma after final dose, mean (SD), SD
[14] = 3.3 mg/kg, Period 1, Cohort 3: IV 3.3 mg/kg colistin base activity q8h x 3 doses, plasma after final dose
[15] = elimination t1/2 (half-life, as stated in text), plasma
[16] = Period 2, Cohort 2: aerosol 75 mg colistin base activity q8h x 3 doses, plasma after final dose, mean (SD), SD
[17] = Cohort 3, first of four subjects
[18] = Cohort 3, fourth of four subjects
[19] = Cohort 3, second of four subjects
[20] = Cohort 3, third of four subjects

Compound	AUC(0-t) [1, 6]	AUC(0-t) [1, 7]	AUC(0-inf) [1, 6]	AUC(0-inf) [1, 7]	clearance [1, 6]	clearance [1, 7]	Cmax [1, 6]	Cmax [1, 7]	Vd [1, 6]	Vd [1, 7]	half-life [1, 8]	half-life [1, 9]	Tmax [1, 10]	Tmax [1, 11]	AUC(0-t) [1, 12]	AUC(0-inf) [1, 12]	clearance [1, 12]	Cmax [1, 12]	Vd [1, 12]	half-life [1, 13]	further results
CC(C)CCCCC(=O)N[C@@H](CCN)C(=O)N[C@H](C(=O)N[C@@H](CCN)C(=O)N[C@H]1CCNC(=O)[C@H]([C@@H](C)O)NC(=O)[C@H](CCN)NC(=O)[C@H](CCN)NC(=O)[C@H](CC(C)C)NC(=O)[C@@H](CC(C)C)NC(=O)[C@H](CCN)NC1=O)[C@@H](C)O [colistin B] ({Heptanoyl(6-Me)}-[Dab]T[Dab][Dab][Dab][dL]L[Dab][Dab]T; lactam 4-C)	1940 ng·h/mL	3590 ng·h/mL	3290 ng·h/mL	5150 ng·h/mL	96.8 mL/min	59 mL/min	570 ng/mL	891 ng/mL	26.3 L	18.1 L	3.45 h	3.64 h	0.667 h	0.6 h	5680 ng·h/mL	7160 ng·h/mL	58.2 mL/min	1390 ng/mL	17.3 L	3.55 h	Tmax [1, 14]: 0.6 h; half-life [1, 15]: ~3.5 h; circulating plasma concentrations following aerosol administration alone (clinical; in vivo): no detectable concentrations
CC[C@H](C)CCCCC(=O)N[C@@H](CCN)C(=O)N[C@H](C(=O)N[C@@H](CCN)C(=O)N[C@H]1CCNC(=O)[C@H]([C@@H](C)O)NC(=O)[C@H](CCN)NC(=O)[C@H](CCN)NC(=O)[C@H](CC(C)C)NC(=O)[C@@H](CC(C)C)NC(=O)[C@H](CCN)NC1=O)[C@@H](C)O [colistin A] (X1-[Dab]T[Dab][Dab][Dab][dL]L[Dab][Dab]T; lactam 4-C)	21800 ng·h/mL	30400 ng·h/mL	23800 ng·h/mL	33000 ng·h/mL	103 mL/min	74.5 mL/min	3950 ng/mL	5360 ng/mL	29.5 L	21.7 L	3.32 h	3.47 h	1.02 h	0.6 h	49100 ng·h/mL	52400 ng·h/mL	64.5 mL/min	8740 ng/mL	22.2 L	4.22 h	Tmax [1, 14]: 1 h; half-life [1, 15]: ~3.5 h; time concentrations stay above the target of 2 μg/mL after dosing ([1]; q8h dosing, 8 h between doses): 6 h; Tmax [2]: 1.43 (0.883 – 2.38) h; t1/2 (clinical; Period 2, Cohort 1: aerosol 75 mg colistin base activity q12h x 2 doses, plasma after final dose, mean (SD)): 8.37 h; CL/F (clinical; [16]): 8.12 (0.628) L/h; t1/2 (clinical; [16]): 7.81 (1.33) h; t1/2 (clinical; Period 2, Cohort 3: aerosol 75 mg colistin base activity q6h x 4 doses, plasma after final dose, mean (SD), SD): 26.0 (31.2) h; circulating plasma concentrations following aerosol administration alone (clinical; Period 2, aerosol only): low and not related to the dose administered; AUC(0-t) (clinical; human, in vivo, inhaled or intranasal, 75 mg, AUC(0-t),, SD): 4220 ng·h/mL; CL/F (clinical; human, in vivo, inhaled or intranasal, 75 mg, CL/F): 136 mL/min; Cmax (clinical; human, in vivo, inhaled or intranasal, 75 mg, Cmax,, SD): 493 ng/mL; Vd/F (clinical; human, in vivo, inhaled or intranasal, 75 mg, Vdss/F): 98.7 L
CC[C@H](C)CCCCC(=O)N[C@@H](CCN)C(=O)N[C@H](C(=O)N[C@@H](CCN)C(=O)N[C@H]1CCNC(=O)[C@H]([C@@H](C)O)NC(=O)[C@H](CCN)NC(=O)[C@H](CCN)NC(=O)[C@H](CC(C)C)NC(=O)[C@@H](CC(C)C)NC(=O)[C@H](CCN)NC1=O)[C@@H](C)O [colistin] (X1-[Dab]T[Dab][Dab][Dab][dL]L[Dab][Dab]T; lactam 4-C)																					subjects with reversible nephrotoxicity (elevated serum creatinine at 24 h post first dose) ([3]; Cohort 3, after three doses of IV colistin 2.5 mg/kg q8h (so in the source)): four; serum creatinine increase (absolute) [3, 17]: 0.67; serum creatinine increase (percent) [3, 17]: 95.7%; serum creatinine increase (absolute) [3, 18]: 0.3; serum creatinine increase (percent) [3, 18]: 45.5%; serum creatinine increase (absolute) [3, 19]: 0.82; serum creatinine increase (percent) [3, 19]: 82.0%; serum creatinine increase (absolute) [3, 20]: 0.69; serum creatinine increase (percent) [3, 20]: 73.4%; time over which creatinine increases resolved ([3]; Cohort 3, ±4 days): 10 days; effect on serum creatinine ([3]; dose increased from 5 mg/kg/day (Cohort 1; 2.5 mg/kg q12h) to 7.5 mg/kg/day (Cohort 2; 2.5 mg/kg q8h)): did not result in increases in serum creatinine; subjects reporting self-limited perioral paresthesias [4]: 39%; patients with negative follow-up cultures ([5]; aerosolized colistin therapy): 37 out of 40; microbiological eradication of the causative MDRO (cases) ([5]; pneumonia patients, aerosolized colistin for a median of 14 days): 18 out of 21
